# Assay results taken from patent publication US12281149B2, “Modulators of G-protein coupled receptors” (priority 2021, dated 2025).
# pEC50: −log10 of the molar value. *1 amine or outer side, *2 acyl side, *3 side chain or, on linkers, in order; H or OH if unused. Where a SMILES comes first, the peptide text is derived from it. Side-chain parts run from the residue outwards. [ ]: non-standard residue; d: D form. The star is where a group is joined. Isobutyryl(2-(3-CN-5-F-Ph)) = CC(C)(C(=O)*)c1cc(F)cc(C#N)c1; C20 diacid = O=C(O)CCCCCCCCCCCCCCCCCCC(=O)*; αMePhe(2-F) = C[C@](N)(Cc1ccccc1F)C(=O)O; γGlu = O=C(O)[C@H](CCC(=O)[*:2])N[*:1]; X6 = CC(C)(C(=O)*)c1ccccc1; AEEA = NCCOCCOCC(=O)O; Aib = CC(C)(N)C(=O)O; βAla = NCCC(=O)O
# What was measured:
# Type in all cases: cell-based
# [1] = biological target: T1, GLP-1 receptor (Homo sapiens, UniProt P43220); experiment: HitHunter cAMP assay, GLP-1 receptor; details: for pEC50: CHO cells stably expressing human GLP-1 receptor, cAMP accumulation, 30 min, read-out: EC50 GLP-1R; for Emax: CHO cells, cAMP, normalized to maximum signal from GLP-1 (high) and DMSO (low), read-out: Emax GLP-1R
# T1 sequence (P43220 24-463): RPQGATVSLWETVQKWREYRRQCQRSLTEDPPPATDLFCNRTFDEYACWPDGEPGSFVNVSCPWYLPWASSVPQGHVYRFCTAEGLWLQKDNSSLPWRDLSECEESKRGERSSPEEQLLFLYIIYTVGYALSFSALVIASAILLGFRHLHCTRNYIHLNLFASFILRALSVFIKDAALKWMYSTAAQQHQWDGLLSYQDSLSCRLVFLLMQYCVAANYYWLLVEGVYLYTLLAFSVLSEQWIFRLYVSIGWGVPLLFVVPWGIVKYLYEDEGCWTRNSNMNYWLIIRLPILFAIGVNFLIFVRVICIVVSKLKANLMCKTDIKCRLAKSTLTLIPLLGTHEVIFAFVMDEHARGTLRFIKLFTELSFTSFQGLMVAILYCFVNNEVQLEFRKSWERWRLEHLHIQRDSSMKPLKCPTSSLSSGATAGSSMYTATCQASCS
# [2] = biological target: T2, GIP receptor (Homo sapiens, UniProt P48546); experiment: HitHunter cAMP assay, GIP receptor; details: for pEC50: CHO cells stably expressing GIP receptor, cAMP accumulation, 30 min, read-out: EC50 GIP-1R; for Emax: CHO cells, cAMP, normalized to maximum signal from GIP (high) and DMSO (low), read-out: Emax GIP-1R
# T2 sequence (P48546 22-466): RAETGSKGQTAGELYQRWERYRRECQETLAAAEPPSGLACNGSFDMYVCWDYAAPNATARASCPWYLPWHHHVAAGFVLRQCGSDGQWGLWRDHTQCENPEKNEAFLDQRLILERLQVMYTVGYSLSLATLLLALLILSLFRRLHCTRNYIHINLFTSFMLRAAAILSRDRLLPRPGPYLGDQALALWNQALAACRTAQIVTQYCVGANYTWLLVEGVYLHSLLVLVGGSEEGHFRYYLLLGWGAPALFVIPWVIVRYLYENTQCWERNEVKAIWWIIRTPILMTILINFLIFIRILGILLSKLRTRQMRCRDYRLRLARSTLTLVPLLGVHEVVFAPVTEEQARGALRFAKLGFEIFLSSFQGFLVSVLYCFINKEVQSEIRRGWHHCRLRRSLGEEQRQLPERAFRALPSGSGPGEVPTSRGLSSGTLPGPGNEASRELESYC
# Description: CAMP accumulation was measured in Chinese hamster ovary (CHO) cells stably expressing the human GLP-1 receptor or GIP receptor using the HitHunter CAMP Assay for Small Molecules Kit (Eurofins). Briefly, cells were grown in Ham's F12 Nutrient Mix with 10% FBS and lifted with Cell dissociation buffer, Enzyme free, PBS based (ThermoFisher). Cells were pelleted and resuspended in Hank's buffered saline solution with 10 mM Hepes and 625 μM 3-isobutyl-1-methylxanthine. The antibody reagent was then added to cells at a 1:2 ratio and 5 μL of mixture was seeded in 384-well small volume white assay plates, at 10,000 cells/well. Cells were then treated with 50 nl compound in DMSO using an ECHO 550 acoustic dispenser (Labcyte) in a 20-point dose response format in triplicate for 30 min. Cells were the lysed and detection reagents added according to the manufacturer's protocol. After overnight incubation, luminescence was measured using a Perkin Elmer Envision plate reader. Raw data was normalized to the maximum signal from GLP-1 or GIP (high) and DMSO (low). Dose response curves were analyzed using GraphPad Prism 9.0.
# [3] = biological target: T2, GIP receptor; experiment: PathHunter β-arrestin assay, GIP receptor; parameters: host or cells: PathHunter CHO-K1 GIPR β-Arrestin Cell Line; details: β-arrestin-2 recruitment, PathHunter CHO-K1 GIPR β-Arrestin Cell Line, 90 min at 37° C.; normalized to GIP; read-out: GIPR β Arrestin EC50
# [4] = biological target: T1, GLP-1 receptor; experiment: PathHunter β-arrestin assay, GLP-1 receptor; parameters: host or cells: PathHunter CHO-K1 GLP1R β-Arrestin Cell Line; details: β-arrestin-2 recruitment, PathHunter CHO-K1 GLP1R β-Arrestin Cell Line, 90 min at 37° C.; normalized to GLP-1; read-out: GLP-1R β Arrestin EC50
# Description: β-arrestin-2 recruitment for GLP-1 receptor or GIP receptor was measured using the DiscoverX PathHunter Detection Kit and PathHunter® CHO-K1 GLPIR β-Arrestin Cell Line or PathHunter® CHO-K1 GIPR β-Arrestin Cell Line, respectively). Briefly, cells were grown in Ham's F12 Nutrient Mix with 10% FBS and lifted with Cell dissociation buffer, Enzyme free, PBS based (ThermoFisher). Harvested cells were pelleted and resuspended in Assay Complete Cell Plating Reagent 2 and 5000 cells per well were plated in tissue culture treated 384-well small volume white assay plates. Plates were then incubated at 37° C. and 5% CO2 overnight. The media was then replaced with fresh Assay Complete Cell Plating Reagent 2. Cells were then treated with 10 nl compound in DMSO using an ECHO 550 acoustic dispenser (Labcyte) in a 20-point dose response format in duplicate for 90 min at 37° C. The assay was then completed according to the manufacturer's instructions. Luminescence was measured using a Perkin Elmer Envision plate reader. Raw data was normalized to the maximum signal from GLP-1 or GIP (high) and DMSO (low). Dose response curves were analyzed using GraphPad Prism 9.0.
Compound,pEC50 [1],Emax [1],pEC50 [2],Emax [2],pEC50 [3],pEC50 [4]
CC[C@H](C)[C@H](NC(=O)[C@H](CC(C)C)NC(=O)[C@H](Cc1c[nH]c2ccccc12)NC(=O)[C@H](CCC(N)=O)NC(=O)[C@@H](NC(=O)[C@H](Cc1ccccc1)NC(=O)[C@H](C)NC(=O)[C@H](CCCCNC(=O)COCCOCCNC(=O)COCCOCCNC(=O)CC[C@H](NC(=O)CCCCCCCCCCCCCCCCCCC(=O)O)C(=O)O)NC(=O)[C@H](CCC(N)=O)NC(=O)[C@H](C)NC(=O)[C@@H](NC(=O)[C@H](CCCCN)NC(=O)[C@H](CC(=O)O)NC(=O)[C@H](CC(C)C)NC(=O)C(C)(C)NC(=O)[C@@H](NC(=O)[C@H](CO)NC(=O)[C@H](Cc1ccc(O)cc1)NC(=O)[C@H](CC(=O)O)NC(=O)[C@H](CO)NC(=O)[C@@H](NC(=O)[C@H](Cc1ccccc1)NC(=O)[C@@H](NC(=O)CNC(=O)[C@H](CCC(=O)O)NC(=O)CCNC(=O)C(C)(C)c1ccccc1)[C@@H](C)O)[C@@H](C)O)[C@@H](C)CC)[C@@H](C)CC)C(C)C)C(=O)N[C@@H](C)C(=O)NCC(=O)NCC(=O)N1CCC[C@H]1C(=O)N[C@@H](CO)C(=O)N[C@@H](CO)C(=O)NCC(=O)N[C@@H](C)C(=O)N1CCC[C@H]1C(=O)N1CCC[C@H]1C(=O)N1CCC[C@H]1C(=O)N[C@@H](CO)C(N)=O [Compound 241] ({X6-βAla}-EGTFTSDYSI[Aib]LDKIAQK([AEEA-AEEA-γGlu-C20 diacid])AFVQWLIAGGPSSGAPPPS-NH2),9.00 to 10.00,95%,8.00 to 9.00,100%,> 6.00,> 6.00
CC[C@H](C)[C@H](NC(=O)[C@H](CC(C)C)NC(=O)[C@H](Cc1c[nH]c2ccccc12)NC(=O)[C@H](CCC(N)=O)NC(=O)[C@@H](NC(=O)[C@H](Cc1ccccc1)NC(=O)[C@H](C)NC(=O)[C@H](CCCCNC(=O)COCCOCCNC(=O)COCCOCCNC(=O)CC[C@H](NC(=O)CCCCCCCCCCCCCCCCCCC(=O)O)C(=O)O)NC(=O)[C@H](CCC(N)=O)NC(=O)[C@H](C)NC(=O)[C@@H](NC(=O)[C@H](CCCCN)NC(=O)[C@H](CC(=O)O)NC(=O)[C@H](CC(C)C)NC(=O)C(C)(C)NC(=O)[C@@H](NC(=O)[C@H](CO)NC(=O)[C@H](Cc1ccc(O)cc1)NC(=O)[C@H](CC(=O)O)NC(=O)[C@H](CO)NC(=O)[C@@H](NC(=O)[C@](C)(Cc1ccccc1F)NC(=O)[C@@H](NC(=O)CNC(=O)[C@H](CCC(=O)O)NC(=O)CCNC(=O)C(C)(C)c1cc(F)cc(C#N)c1)[C@@H](C)O)[C@@H](C)O)[C@@H](C)CC)[C@@H](C)CC)C(C)C)C(=O)N[C@@H](C)C(=O)NCC(=O)NCC(=O)N1CCC[C@H]1C(=O)N[C@@H](CO)C(=O)N[C@@H](CO)C(=O)NCC(=O)N[C@@H](C)C(=O)N1CCC[C@H]1C(=O)N1CCC[C@H]1C(=O)N1CCC[C@H]1C(=O)N[C@@H](CO)C(N)=O [Compound 245] ({Isobutyryl(2-(3-CN-5-F-Ph))-βAla}-EGT[αMePhe(2-F)]TSDYSI[Aib]LDKIAQK([AEEA-AEEA-γGlu-C20 diacid])AFVQWLIAGGPSSGAPPPS-NH2),9.00 to 10.00,122%,9.00 to 10.00,90%,> 6.00,< 6.00
